Data as given in patent US20210260018A1, “COMPOSITION FOR TREATING FIBROTIC DISEASES, […] THI[…] AS ACTIVE INGREDIENT” (Cellion Biomed Inc., priority 2018, published 2021).

Assays:
KCa2.3 channel [1] = experiment: KCa2.3 channel protein expression in hepatic stellate cells (western blotting); assay type: cell-based, human; conditions: exposure for 24 hours
Method: (§1) Fibroblasts (CRL-2795; American Type Culture Collection, VA) were cultured in a Dulbecco's Modified Eagle Medium (Hyclone, Logan, Utah), human uterine microvascular endothelial cells (PromoCell GmbH, Heidelberg, Germany) were cultured in an MV2 medium (PromoCell GmbH), and human hepatic stellate cells (Innoprot, Bizkia, Spain) were cultured in a P60126 medium (Innoprot).
(§2) All cells were maintained under a 5% humidified carbon dioxide condition at 37° C. The cultured cells were exposed to each of PDGF, TGFβ, and the compounds of Formulas A1 to A9 (CBM-N1 N9) for 24 hours, followed by performing experiments.
(§3) Cells were lysed with a protein extraction buffer solution, a protein concentration in a supernatant was determined by Bradford analysis, and […] of the protein was loaded on an SDS-PAGE gel and then transferred to a nitrocellulose membrane. The nitrocellulose membrane was blocked with 5% BSA-containing TEST (10 mM Tris-HCl, 150 mM NaCl, and 0.1% (v/v) Tween-20, pH 7.6) at room temperature for 1 hour. Blots were incubated overnight with primary antibodies, and then incubated with horseradish peroxidase-conjugated secondary antibodies for 1 hour. Bands were visualized by chemiluminescence. Data collection and processing were performed using an image analyzer (LAS-3000) and IMAGE GAUSE software (Fuji film, Japan).

[2] = test system: TAA-induced liver disease mouse models; experiment: TAA-induced liver disease mouse model; assay type: in vivo; conditions: TAA mice
Method: To confirm the effects of the compounds of Formula A1 to A5 (CBM-N1˜N5) according to the present invention on liver inflammation and fibrosis, subsequent experiments were performed on […] wild-type mouse (purchased from Orient Bio). First, to induce liver disease in mice, thioacetamide (TAA) were administered to the mice (Experiment A), or the mice were raised on a western diet inducing fatty liver disease (Experiment B). The mice were divided into a normal control, a disease-induced group, and a drug-administered group, and among these three groups, […] were used in each group for Experiment A, and 10 mice were used in each group for Experiment B. A drug treatment method for the mice in each group is as follows:
(1) Normal control: The normal control in Experiment A was intraperitoneally injected three times a week with the same amount of TAA solvent used when TAA was injected into a disease-induced group, and the normal control in Experiment B was raised on a normal diet. In both of the Experiments A and B, a CM/1-N1 solvent was injected using an oral tube at the same amount as that of CBM-N1 injection five times a week. The TAA solvent was distilled water, the CBM-N1 solvent and a derivative thereof were a 1:1 mixture of DMSO and distilled water. In the accompanying drawings, C or Control refers to a normal control.
(2) Disease-induced group: The disease-induced group in the Experiment A was intraperitoneally injected with TAA at 100 mg/kg three times a week, the disease-induced group in the Experiment B was raised on a western diet (WD, 45% saturated fat, […], and water containing fructose and glucose). All CBM-N1 solvents in the Experiments A and B were administered using an oral tube at the same amount as that of CBM-N1 administration five times a week. In the accompanying drawings, TAA refers to a group in which a disease is induced by TAA, and \VD refers to a group in which a disease is induced by a western diet.
(3) Drug-administered group: In the Experiment A, the compounds of Formulas 1 to 5 (50 mg/kg/day, 5 times/week e administered with TAA (100 mg/kg, 3 times/week), and in the Experiment B, CBM-N1 to N5 (50 mg/kg/day, 5 times/week) were administered with a western diet. The mice treated by the above-described method for 16 weeks were instantly killed by excessively administering an anesthetic, and then the livers and blood were extracted. In the accompanying drawings, TAA+CBM-Ni, TAA+CBM-N2, TAA+CBM-N3, TAA+CBM-N4 and TAA+CBM-N5 refer to disease-induced groups to which the compounds of Formulas A1 to A5 were administered, respectively.
(§4) To histologically confirm the therapeutic effect of the compound of Formula A1 (CBM-N1) or the compound of Formula A9 (CBM-N9) in each mouse model, a paraffin tissue sample was prepared. Liver and lung tissues were fixed with a paraformaldehyde solution, and sliced to a thickness of 1 to 2 mm. The sectioned tissues were embedded in paraffin, sliced to a thickness of 4 μm to remove paraffin with xylene, and the xylene was removed with ethanol, followed by washing with tap water. The resulting tissues were subjected to hematoxylin and eosin staining (H&E staining) or immunohistochemistry.
(1) H&E staining: Nuclei were first stained (blue) with a Harris hematoxylin staining solution for 5 minutes, and counter-stained (pink) with an eosin solution.
(2) Immunohistochemistry for inflammation markers: Inflammation markers (CD82 and CD45) were stained with specific antibodies, and lymphoid cells were stained brown.
(3) Immunohistochemistry for fibrosis markers: Collagen was stained by Masson's trichrome staining, or reticulin fibers were stained by reticulin staining.
Aspartic acid aminotransferase (AST, GOT) and alanine aminotransferase (ALT, GPT), total bilirubin and albumin concentrations were measured using blood collected from liver disease mouse models. […]

fibroblasts = experiment: MTT cell proliferation in fibroblasts exposed to TGFβ or PDGF; assay type: cell-based; conditions: fibroblasts, TGFβ (5 ng/ml) or PDGF (20 ng/ml), 24 hours
Method: as §1, §2
Cells were seeded in 96-well plates at 2×10^4 cells/well, and then exposed to TGFB, which promotes cell proliferation, for 24 hours. In addition, 0.1 mg of MTT was added to each well, followed by exposure for 4 hours at 37° C. Afterward, the culture medium was removed, the cells were lysed with dimethyl sulfoxide, and then absorbance was measured at 590 nm using the following devices.

[3] = test system: bleomycin-induced pulmonary fibrosis mouse models; experiment: Bleomycin-induced pulmonary inflammation and fibrosis mouse model; assay type: in vivo; conditions: lung tissue, bleomycin mice
Method: To confirm the effect of the compound of Formula A9 (CBM-N9) on pulmonary inflammation and fibrosis caused by bleomycin, the following experiments were performed on C57BL/6 wild-type mice. First, the mice were divided into a normal control, a disease-induced group, and a drug-administered group, and ten mice were included in each of the three groups. A drug treatment method for the mice in each group is as follows:
(1) Normal control: The same amount of distilled water as used when the bleomycin was applied in the disease-induced group was instilled intratracheally. In addition, a CBM-N9 solvent was intraperitoneally injected at the same amount used when CBM-N9 was administered to the disease-induced group to be described below five times a week.
(2) Disease-induced group: 1.5 units of bleomycin was instilled intratracheally. In addition, a CBM-N9 solvent was intraperitoneally injected at the same amount used in CBM-N9 administration five times a week.
(3) Drug-administered group: 1.5 units of bleomycin was intratracheally instilled. In addition, CBM-N9 (50 mg/kg) was injected intraperitoneally five times a week.
The mice treated with the drug for 4 weeks in the same manner as described above were instantly killed by excessively administering an anesthetic, and then the lungs were extracted.
as §4, with “The resulting tissues were subjected to hematoxylin and eosin staining (H&E staining) or immunohistochemistry.” left out
Cells were lysed with a protein extraction buffer solution, a protein concentration in a supernatant was determined by Bradford analysis, and […] of the protein was loaded on an SDS-PAGE gel and then transferred to a nitrocellulose membrane. […]

KCa2.3 channel [4] = experiment: KCa2.3 current in hepatic stellate cells (whole-cell patch-clamp); assay type: cell-based, human; conditions: membrane potential of 1-50 mV, exposure for 24 hours
Method: as §1, §2
A whole cell current through a cell membrane in the isolated and cultured single cells was measured using a patch-clamp technique. […]
A standard external solution contained 150 mM NaCl, 6 mM KCl, 1.5 mM CaCl2), 1 mM MgCl2, 10 mM HEPES and 10 mM glucose at pH 7.4 (titrated NaOH), and a micro glass electrode (pipette) solution contained 40 mM KCl, 100 mM K-aspartate, 2 mM MgCl2, 0.1 mM EGTA, 4 mM Na2ATP and 10 mM HEPES at pH 7.2 (titrated with KOH). A free Ca^2+ concentration in the pipette solution was adjusted to 1 μM by adding an appropriate amount of Ca^2+ in the presence of 5 mM EGTA (calculated with CaBuf; Droogmans, Leuven, Belgium), […]

KCa2.3 channel [5] = experiment: KCa2.3 channel expression in vascular endothelial cells (real-time PCR, western blotting); assay type: cell-based, human; conditions: vascular endothelial cells exposed to PDGF (20 ng/ml) or TGF (5 ng/ml) for 24 hours
Method: as §1, §2
The mRNA expression levels of inflammation or fibrosis factors in extracted liver tissue were measured by real-time PCR. RNA of the liver tissue was isolated with a TRIzol reagent (Molecular Research Center, Cincinnati, Ohio), and single-stranded cDNA was synthesized using BcaBEST polymerase (TakaraShuzo), followed by a polymerase chain reaction.
Cells were lysed with a protein extraction buffer solution, a protein concentration in a supernatant was determined by Bradford analysis, and […] of the protein was loaded on an SDS-PAGE gel and then transferred to a nitrocellulose membrane. The nitrocellulose membrane was blocked with 5% BSA-containing TEST (10 mM Tris-HCl, 150 mM NaCl, and 0.1% (v/v) Tween-20, pH 7.6) at room temperature for 1 hour. […]

KCa3.1 channel = KCa3.1 channel expression in vascular endothelial cells; assay type: cell-based, human; conditions: PDGF treatment, 24 hours
Method: as §1, §2, §3

[6] = blood, 50 mg/kg/day, 16 weeks, mean±S.E.M

Sequence of KCa3.1 channel (O15554 whole entry): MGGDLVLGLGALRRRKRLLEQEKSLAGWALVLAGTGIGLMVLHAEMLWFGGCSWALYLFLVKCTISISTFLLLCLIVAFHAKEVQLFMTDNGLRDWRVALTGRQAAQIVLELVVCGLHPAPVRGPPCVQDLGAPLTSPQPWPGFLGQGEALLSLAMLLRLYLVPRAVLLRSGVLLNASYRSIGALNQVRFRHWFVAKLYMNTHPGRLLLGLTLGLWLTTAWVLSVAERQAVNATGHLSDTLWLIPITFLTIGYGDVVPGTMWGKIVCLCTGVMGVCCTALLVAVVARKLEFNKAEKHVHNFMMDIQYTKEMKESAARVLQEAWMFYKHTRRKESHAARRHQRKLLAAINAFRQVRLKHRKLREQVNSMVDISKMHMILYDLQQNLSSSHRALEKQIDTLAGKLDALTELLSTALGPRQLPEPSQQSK

## O=C(C[S+]([O-])C(c1ccccc1)c1ccccc1)NCC1CCCO1 (centres unmarked) [CBM-N5, 2-(benzhydrylsulfinyl)-N-[(tetrahydrofuran-2-yl)methyl]acetamide]
KCa2.3 channel [1]
  expression of the KCa2.3 channel protein: significantly reduced
[2]; [6]
  ALT levels: 106.4±12.8 units/L
  AST blood levels: 67.7±10.2 units/L
[2]; liver tissue, versus disease-induced group
  mRNA level of inflammation factors (inflammatory cytokines TNFα, CCL2, IL12, TGF, IL1α, IL6, MIP-2): decreased

## NC(=O)C[S+]([O-])C(c1cccc(F)c1)c1cccc(F)c1 (centres unmarked) [CBM-N8, 2-[bis(3-fluorophenyl)methanesulfinyl]acetamide]
KCa2.3 channel [1]
  expression of the KCa2.3 channel protein: significantly reduced
fibroblasts
  TGFβ or PDGF-induced cell proliferation: significantly reduced

## NC(=O)C[S+]([O-])C(c1ccc(F)cc1)c1ccc(F)cc1 (centres unmarked) [CBM-N9, 2-[bis(4-fluorophenyl)methanesulfinyl]acetamide]
KCa2.3 channel [1]
  expression of the KCa2.3 channel protein: significantly reduced
[3]; 50 mg/kg intraperitoneally five times a week, 4 weeks, versus disease-induced group
  degrees of inflammation and fibrosis (H&E, CD45 immunohistochemistry, Masson's trichrome): decreased
[3]; FIG. 13A
  protein expression levels of inflammation markers TIMP-2 and CCR2: greatly decreased
[3]; FIG. 13B
  expression of fibrosis marker proteins (printed: protein expression levels of TIMP-2 and, CCR2): greatly decreased
fibroblasts
  TGFβ or PDGF-induced cell proliferation: significantly reduced
KCa2.3 channel [4]
  KCa2.3 current densities versus cells not exposed: significantly decreased

## PDGF
KCa2.3 channel [5]
  expression of the mRNA and protein of the KCa2.3 channel: increased
KCa3.1 channel
  expression of the KCa3.1 channel: did not increase
